The source of these data is patent US6143764A, “Quinoline and quinazoline derivatives inhibiting platelet-derived growth factor receptor autophosphorylation and pharmaceutical compositions containing the same” (priority 1995, dated 2000).

Each structure is given as a SMILES string. Read-outs that look alike come from different tables or passages of the source.

One assay has as its target T1, PDGF receptor (Rattus norvegicus, UniProt Q05030).
T1 construct: cultured rat mesangial cells which are known to have the PDGF receptor; endogenous in cells; host or cells: primary mesangial cells cultured from glomeruli of Wistar-Kyoto rats (Charles River Japan), more than 5 passages
The assay is described as follows: PDGF receptor autophosphorylation inhibition in cultured rat mesangial cells. It is filed as cell-based. To be noted: PDGF-BB 50 ng/ml. The protocol: 1. Cultivation of rat mesangial cells
The glomerulus-derived adhesive cells were subcultured several times to obtain mesangial cells. The mesangial cells subcultured more than 5 passages were used for the assay.
2.Evaluation of PDGF receptor autophosphorylation inhibition
The mesangial cells were seeded in 24-well flat-bottom microtiter plates and then cultured in the medium containing 10% FCS for 2 days. When the cells were grown to about 3×10^4 cells per well, the medium was changed to the medium containing 0.5% FCS, the cultivation was continued for another 3 days, and then cell growth was arrested. The culture medium was removed, the adhered cells were washed with 500 μl of the medium, and 250 μl of the medium containing 0.1% bovine serum albumin (hereinafter abbreviated to BSA) was then added. A test drug dissolved in 1.38 μl of dimethyl sulfoxide (hereinafter abbreviated to DMSO) was added to this culture medium, and the admixture was incubated at 37° C. for 1 hour. Recombinant human platelet-derived growth factor BB chain (hereinafter abbreviated to PDGF-BB) was dissolved in the medium containing 0.1% BSA, 25 μl per well of the solution was added at final 50 ng/ml, and the incubation was continued at 37° C. for 10 minutes. […] The cells were allowed to stand at 4° C. for 30 minutes for lysis, and the resulting solution was thoroughly admixed with an equal amount of Tris-buffered physiological saline containing 1% sodium dodecyl sulfate (hereinafter abbreviated to SDS). […] After the electrophoresis, proteins in the gel were electrically transferred to a PVDF filter, which was then subjected to Western blotting using monoclonal antibodies against phosphotyrosine. Bands of PDGF receptor (molecular weight: about 180 Kda) which were autophosphorylated due to the addition of PDGF-BB were quantitated by a densitometer. Autophosphorylation rates for individual wells with drugs were calculated by setting measurements for PDGF receptor autophosphorylation in the wells without drugs in the presence and absence of PDGF-BB as 100% and 0%, respectively.

The subject of the next assay is human glioma (GLO7). The assay is described as follows: Antitumor effect of the compounds against human glioma (GLO7), nude mice xenograft. The settings on record: Mus musculus, po, 216 h, read-out: Tumor growth inhibition rate (TGIR). It is filed as in vivo. A general note: Xenograft models place foreign cells or tissue in a host animal.
The mark [1] stands for this setting: nude mice, 50 mg/kg orally once a day, 9 days.

T1 sequence (Q05030 32-1097): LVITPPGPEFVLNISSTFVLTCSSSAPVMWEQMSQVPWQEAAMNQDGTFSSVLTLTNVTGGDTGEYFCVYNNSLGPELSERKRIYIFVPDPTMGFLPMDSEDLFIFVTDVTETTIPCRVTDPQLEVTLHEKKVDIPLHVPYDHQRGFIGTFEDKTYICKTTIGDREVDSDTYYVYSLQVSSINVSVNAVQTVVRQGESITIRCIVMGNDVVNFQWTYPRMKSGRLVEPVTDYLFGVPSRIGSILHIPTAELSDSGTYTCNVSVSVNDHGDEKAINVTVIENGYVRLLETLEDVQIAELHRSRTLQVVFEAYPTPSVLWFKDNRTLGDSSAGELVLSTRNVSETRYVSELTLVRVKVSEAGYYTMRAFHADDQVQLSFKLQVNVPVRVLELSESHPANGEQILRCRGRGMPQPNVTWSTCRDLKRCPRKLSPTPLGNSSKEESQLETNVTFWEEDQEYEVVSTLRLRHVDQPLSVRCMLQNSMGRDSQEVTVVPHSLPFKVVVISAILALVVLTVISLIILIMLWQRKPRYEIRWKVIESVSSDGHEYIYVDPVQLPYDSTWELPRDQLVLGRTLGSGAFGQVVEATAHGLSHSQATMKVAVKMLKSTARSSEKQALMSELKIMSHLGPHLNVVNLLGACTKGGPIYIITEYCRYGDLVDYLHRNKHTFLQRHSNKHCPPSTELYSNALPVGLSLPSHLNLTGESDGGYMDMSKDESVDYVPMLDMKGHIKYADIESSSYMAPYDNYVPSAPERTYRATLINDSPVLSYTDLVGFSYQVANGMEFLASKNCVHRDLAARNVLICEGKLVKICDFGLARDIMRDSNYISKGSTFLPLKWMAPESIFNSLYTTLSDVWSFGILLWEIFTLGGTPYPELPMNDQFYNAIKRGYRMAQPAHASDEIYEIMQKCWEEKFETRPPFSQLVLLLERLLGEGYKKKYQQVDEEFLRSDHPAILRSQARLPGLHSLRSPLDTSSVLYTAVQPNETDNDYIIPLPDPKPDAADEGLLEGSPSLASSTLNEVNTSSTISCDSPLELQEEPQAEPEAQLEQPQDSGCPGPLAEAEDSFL
Experimental for human glioma (GLO7): Analogously to 2, human glioma cells, GLO7 (obtained from the Central Institute for Experimental Animals), was transplanted into nude mice. When the tumor had grown to a volume of about 100 mm^3, the nude mice were divided into several groups of 4 animals so as to equalize the average tumor volumes of each group. The test drug was administered orally to animals in experimental groups once a day for 9 consecutive days at 50 mg/kg, and the vehicle was administered to control animals. The tumor growth inhibition rate (TGIR, %) was calculated from the equation: TGIR=(1-Tx/Cx)×100, in which Cx is the tumor volume in the control mice and Tx is the tumor volume in the drug-treated mice, on day X, when the initial tumor volume at the time treatment was commenced is set 1.

What is called IC50 is the concentration needed to halve the response being measured. A low value points to greater potency in that assay. `COc1cc2nccc(Oc3ccc(NC(=O)Nc4ccc(Br)cc4)cc3)c2cc1OC` [Compound 45, N-(4-Bromophenyl)-N'-{4-[(6,7-dimethoxy-4-quinolinyl)oxy]phenyl}urea] yielded an IC50 at PDGF receptor of 0.014 µM. The inhibition in vivo at 50 mg/kg in the assay with human glioma (GLO7) (setting [1]) is 68%.
`COc1cc2nccc(Oc3ccc(NC(=O)Nc4ccc(Cl)cc4Cl)cc3)c2cc1OC` [Compound 229, N-(2,4-Dichlorophenyl)-N'-{4-[(6,7-dimethoxy-4-quinolyl)oxy]phenyl}urea]: the inhibition in vivo at 50 mg/kg in the assay on human glioma (GLO7) was 81%.
On to `COc1cc2nccc(Oc3ccc(NC(=O)Nc4ccc(F)cc4)cc3)c2cc1OC` [Compound 44, N-(4-Fluorophenyl)-N'-{4-[(6,7-dimethoxy-4-quinolinyl)oxy]phenyl}urea], for which the IC50 against PDGF receptor is 0.006 µM. The inhibition in vivo at 50 mg/kg in the assay on human glioma (GLO7) (setting [1]) was found to be 78%.
The corresponding values for `C=CCNC(=O)Nc1ccc(Oc2ccnc3cc(OC)c(OC)cc23)cc1` [Compound 173, N-Allyl-N'-{4-[(6,7-dimethoxy-4-quinolyl)oxy]phenyl}urea] are 0.016 µM and 54%.
As to `COc1ccccc1NC(=O)Nc1ccc(Oc2ccnc3cc(OC)c(OC)cc23)cc1` [Compound 57], half-maximal inhibition on PDGF receptor (IC50) required 0.006 µM. Moreover, in the assay on human glioma (GLO7) (setting [1]), the inhibition in vivo at 50 mg/kg stood at 64%.
`COc1ccc(Cl)cc1NC(=O)Nc1ccc(Oc2ccnc3cc(OC)c(OC)cc23)cc1` [Compound 227, N-(3-Chloro-6-methoxyphenyl)-N'-{4-[(6,7-dimethoxy-4-quinolyl)oxy]phenyl}urea] had an IC50 at PDGF receptor of 0.073 µM. In the assay on human glioma (GLO7) (setting [1]), the inhibition in vivo at 50 mg/kg stood at 78%.
With `COc1cc2nccc(Oc3ccc(NC(=O)Nc4cc(C(F)(F)F)ccc4C(F)(F)F)cc3)c2cc1OC` [Compound 264, N-(2,5-Bis(trifluoromethyl)phenyl]-N'-{4-[(6,7-dimethoxy-4-quinolyl)oxy]phenyl}urea], the inhibition in vivo at 50 mg/kg with human glioma (GLO7) (setting [1]) stood at 63%.
Consider `COc1cc2nccc(Oc3ccc(NC(=O)Nc4cc(Cl)ccc4Cl)cc3)c2cc1OC` [Compound 235], for which the inhibition in vivo at 50 mg/kg with human glioma (GLO7) was 78%.
At PDGF receptor, `COc1cc2nccc(Oc3ccc(NC(=O)Nc4c(F)ccc(F)c4F)cc3)c2cc1OC` [Compound 262, N-(2,3,6-Trifluorophenyl)-N'-{4-[(6,7-dimethoxy-4-quinolyl)oxy]phenyl}urea] showed an IC50 of 0.002 µM. The inhibition in vivo at 50 mg/kg with human glioma (GLO7) (setting [1]) came out at 87%.
With `CCCNC(=O)Nc1ccc(Oc2ccnc3cc(OC)c(OC)cc23)cc1` [Compound 194, N-{4-[(6,7-Dimethoxy-4-quinolyl)oxy]phenyl}-N'-propylurea], at PDGF receptor, the midpoint of inhibition, the IC50, lay at 0.014 µM. For the same compound, in the assay with human glioma (GLO7) (setting [1]), the inhibition in vivo at 50 mg/kg stood at 59%.
In the same order, the values of `COc1cc2nccc(Oc3ccc(NC(=O)Nc4ccccc4[N+](=O)[O-])cc3)c2cc1OC` [Compound 168, N-{4-[(6,7-Dimethoxy-4-quinolyl)oxy]phenyl}-N'-(2-nitrophenyl)urea] are 0.006 µM and 56%.
Regarding `CCOC(=O)NC(=O)Nc1ccc(Oc2ccnc3cc(OC)c(OC)cc23)cc1` [Compound 190, N-Ethoxycarbonyl-N'-{4-[(6,7-Dimethoxy-4-quinolyl)oxy]phenyl}urea], at PDGF receptor, the midpoint of inhibition, the IC50, lay at 0.021 µM. The inhibition in vivo at 50 mg/kg with human glioma (GLO7) (setting [1]) is 50%.
Turning to `COc1cc2nccc(Oc3ccc(NC(=O)Nc4cc(F)c(F)cc4F)cc3)c2cc1OC` [Compound 255, N-(2,4,5-Trifluorophenyl)-N'-{4-[(6,7-dimethoxy-4-quinolyl)oxy]phenyl}urea], at PDGF receptor, inhibition was half-maximal at 0.015 µM (IC50). Moreover, the inhibition in vivo at 50 mg/kg in the assay with human glioma (GLO7) (setting [1]) was found to be 86%.
For the compound `COc1cc2nccc(Oc3ccc(NC(=O)Nc4ccccc4C)cc3)c2cc1OC` [Compound 56, N-{4-[(6,7-Dimethoxy-4-quinolyl)oxy]phenyl}-N'-(2-methylphenyl)urea], the concentration for half-maximal inhibition (IC50) at PDGF receptor was determined as 0.004 µM. In the assay on human glioma (GLO7) (setting [1]), the inhibition in vivo at 50 mg/kg came to 52%.
On to `COc1cc2nccc(Oc3ccc(NC(=O)Nc4cccc(F)c4F)cc3)c2cc1OC` [Compound 260, N-(2,3-Difluorophenyl)-N'-{4-[(6,7-dimethoxy-4-quinolyl)oxy]phenyl}urea], for which the midpoint of inhibition at PDGF receptor, the IC50, lay at 0.002 µM. In addition, the inhibition in vivo at 50 mg/kg in the assay with human glioma (GLO7) (setting [1]) amounted to 52%.
In the case of `COc1cc2nccc(Oc3ccc(NC(=O)Nc4ccc(Cl)c(Cl)c4)cc3)c2cc1OC` [Compound 236, N-(3,4-Dichlorophenyl)-N'-[4-[(6,7-dimethoxy-4-quinolyl)oxy]phenyl}urea], in the assay on human glioma (GLO7), the inhibition in vivo at 50 mg/kg came out at 84%.
As to `COc1cc2nccc(Oc3ccc(NC(=O)Nc4cc(Cl)cc(Cl)c4)cc3)c2cc1OC` [Compound 237, N-(3,5-Dichlorophenyl)-N'-{4-[(6,7-dimethoxy-4-quinolyl)oxy]phenyl}urea], the inhibition in vivo at 50 mg/kg with human glioma (GLO7) was determined as 74%.
Take `COc1cc2nccc(Oc3ccc(NC(=O)Nc4ccc(Cl)cc4)cc3)c2cc1OC` [Compound 165, N-(4-Chlorophenyl)-N'-{4-[(6,7-dimethoxy-4-quinolyl)oxy]phenyl}urea]: the inhibition in vivo at 50 mg/kg in the assay on human glioma (GLO7) is 70%.
Take `COc1ccc(NC(=O)N(C)c2ccc(Oc3ccnc4cc(OC)c(OC)cc34)cc2)cc1` [Compound 200, N-Methyl-N-{4-[(6,7-dimethoxy-4-quinolyl)oxy]phenyl}-N'-(4-methoxyphenyl)urea]: the IC50 against PDGF receptor was found to be 0.004 µM.
At PDGF receptor, `COc1cc2nccc(Oc3ccc(NC(=O)c4ccc(N(C)C)cc4)cc3)c2cc1OC` [Compound 67, N-{4-[(6,7-Dimethoxy-4-quinolinyl)oxy]phenyl}-(N,N-dimethylaminophenyl)carboxamide] returned an IC50 of 0.11 µM. This IC50 lies about 28-fold higher than the previous one.
The compound `COc1cc2nccc(Oc3ccc(NC(=O)NCc4ccc(N(C)C)cc4)cc3)c2cc1OC` [Compound 251, N-{4-[(6,7-Dimethoxy-4-quinolyl)oxy]phenyl}-N'-[(4-dimethylaminophenyl)methyl]urea] registered an IC50 against PDGF receptor of 0.036 µM.
Compound `COc1cc2nccc(Oc3ccc(NC(=O)Nc4ccc5c(c4)OCCO5)cc3)c2cc1OC` [Compound 199, N-(3,4-Ethylenedioxyphenyl)-N'-{4-[(6,7-dimethoxy-4-quinolyl)oxy]phenyl}urea] returned an IC50 on PDGF receptor of 0.003 µM.
On the same count and under the same terms, the same measure for `COc1cc2nccc(Oc3ccc(NC(=O)Nc4ccc(O)cc4)cc3)c2cc1OC` [Compound 269, N-(4-Hydroxyphenyl)-N'-{4-[(6,7-dimethoxy-4-quinolyl)oxy]phenyl}urea]: 0.008 µM; for `COc1cccc(Oc2ccnc3cc(OC)c(OC)cc23)c1` [Compound 2, 6,7-Dimethoxy-4-(3-methoxyphenoxy)quinoline]: 0.44 µM.
For the compound `CCc1ccc(NC(=O)Nc2ccc(Oc3ccnc4cc(OC)c(OC)cc34)cc2)cc1` [Compound 188, N-(4-Ethylphenyl)-N'-{4-[(6,7-dimethoxy-4-quinolyl)oxy]phenyl}urea], at PDGF receptor, half-maximal inhibition (IC50) required 0.006 µM. This IC50 lies about 73-fold lower than the previous one.
`COc1cc2nccc(Oc3ccc(NC(=O)Nc4cccc(C(F)(F)F)c4)cc3)c2cc1OC` [Compound 53] displayed an IC50 against PDGF receptor of 0.01 µM.
Regarding `CCOC(=O)c1cccc(NC(=O)Nc2ccc(Oc3ccnc4cc(OC)c(OC)cc34)cc2)c1` [Compound 233, N-(3-Ethoxycarbonylphenyl)-N'-{4-[(6,7-dimethoxy-4-quinolyl)oxy]phenyl}urea], at PDGF receptor, the IC50 came to 0.013 µM.
As for `CCCCc1ccccc1NC(=O)Nc1ccc(Oc2ccnc3cc(OC)c(OC)cc23)cc1` [Compound 232, N-(2-n-Butylphenyl)-N'-(4-[(6,7-dimethoxy-4-quinolyl)oxy]phenyl}urea], the midpoint of inhibition at PDGF receptor, the IC50, lay at 0.018 µM. This IC50 and that of the compound before are within 1.5-fold of each other.
The same measure, in the same setting: as for `COc1cc2nccc(Oc3ccc(NC(=O)NC(C)c4cccc5ccccc45)cc3)c2cc1OC` (stereo not shown) [Compound 231, N-{4-[(6,7-dimethoxy-4-quinolyl)oxy]phenyl)-N'-[1-(1-naphthyl)ethyl]urea], the figure is 0.019 µM; as for `COc1cc2nccc(Oc3ccc(NC(=O)Nc4ccccc4N)cc3)c2cc1OC` [Compound 169, N-(2-Aminophenyl)-N'-{4-[(6,7-dimethoxy-4-quinolyl)oxy]phenyl}urea], 0.004 µM; as for `COc1cc(OC)c(NC(=O)Nc2ccc(Oc3ccnc4cc(OC)c(OC)cc34)cc2)cc1Cl` [Compound 241, N-(3-Chloro-4,6-dimethoxyphenyl)-N'-{4-[(6,7-dimethoxy-4-quinolyl)oxy]phenyl}urea], 0.018 µM.
Regarding `COc1cc2nccc(Oc3ccc(NC(=O)Nc4ccc(SC)cc4)cc3)c2cc1OC` [Compound 163], at PDGF receptor, the concentration for half-maximal inhibition (IC50) amounted to 0.005 µM. Against the preceding compound, the IC50 is about 3.6-fold lower.
Same read-out and setting: as for `COc1cc2nccc(Oc3ccc(NC(=O)Nc4ccc(C(C)C)cc4)cc3)c2cc1OC` [Compound 51, N-(4-Isopropylphenyl)-N'-{4-[(6,7-dimethoxy-4-quinolinyl)oxy]phenyl}urea], the figure is 0.009 µM.
As to `COc1cc2nccc(Oc3ccc(NC(=O)Nc4ccccc4N(C)C)cc3)c2cc1OC` [Compound 191], the inhibition in vivo at 50 mg/kg in the assay on human glioma (GLO7) (setting [1]) worked out at 50%.
